Assay results reported in paper PMC6539594, “Triazolopeptides Inhibiting the Interaction between Neuropilin-1 and Vascular Endothelial Growth Factor-165” (Molecules, 2019).
Where “and” joins values, the source holds several entries; their conditions need not be identical. Equal entries are not always repeated. Entries after “also recorded” stand apart in the source; their conditions may differ. Where two headings read alike, the source gives them in different places. Where no end group is shown, it is not given here. [ ]: non-standard residue; d: D form. hArg = N=C(N)NCCCC[C@H](N)C(=O)O; Dab = NCC[C@H](N)C(=O)O

Tests used:
[1] = biological target: T1, NRP-1 (neuropilin-1), binding of bt-VEGF165 (Homo sapiens, UniProt O14786); assay: ELISA: inhibition of bt-VEGF165 binding to NRP-1; settings: for Inhibition of bt-VEGF165 Binding to NRP-1 [10 µM] / inhibition at 10 µM: mean ± S.D.
T1 sequence (O14786 22-923, species assumed): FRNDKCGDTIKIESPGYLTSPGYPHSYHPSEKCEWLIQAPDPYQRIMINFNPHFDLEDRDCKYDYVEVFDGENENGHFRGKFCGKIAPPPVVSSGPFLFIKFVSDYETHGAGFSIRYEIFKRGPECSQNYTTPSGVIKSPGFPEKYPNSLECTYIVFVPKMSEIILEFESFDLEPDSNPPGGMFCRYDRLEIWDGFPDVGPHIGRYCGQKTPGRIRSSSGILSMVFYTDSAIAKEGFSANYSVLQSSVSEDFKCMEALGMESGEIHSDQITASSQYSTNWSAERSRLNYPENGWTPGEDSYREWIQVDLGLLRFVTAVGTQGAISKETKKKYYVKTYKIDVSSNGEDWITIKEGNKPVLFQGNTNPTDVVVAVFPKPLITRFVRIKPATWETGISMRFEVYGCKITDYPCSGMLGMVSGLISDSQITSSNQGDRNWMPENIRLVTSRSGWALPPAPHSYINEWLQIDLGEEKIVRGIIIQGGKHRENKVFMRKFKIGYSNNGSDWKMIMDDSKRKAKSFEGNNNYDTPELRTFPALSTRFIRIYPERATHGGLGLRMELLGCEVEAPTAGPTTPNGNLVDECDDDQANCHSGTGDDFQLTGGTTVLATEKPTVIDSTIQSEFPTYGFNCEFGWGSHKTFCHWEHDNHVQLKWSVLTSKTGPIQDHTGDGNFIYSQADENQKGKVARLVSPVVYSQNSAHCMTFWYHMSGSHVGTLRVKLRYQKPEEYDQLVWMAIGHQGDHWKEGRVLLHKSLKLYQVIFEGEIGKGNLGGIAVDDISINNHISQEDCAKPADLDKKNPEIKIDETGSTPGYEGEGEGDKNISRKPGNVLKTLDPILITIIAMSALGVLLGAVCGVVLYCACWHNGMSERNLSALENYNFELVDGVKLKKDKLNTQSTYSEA
Method: The inhibitory activity of obtained triazolopeptides 1–23 toward binding of VEGF165 to NRP-1 was measured with the enzyme-linked immunosorbent assay (ELISA). This protocol was described earlier in the literature and was broadly used by our group. VEGF165 was used in biotinylated form (bt-VEGF165).
This assay was carried out according to a previously described method.

[2] = biological target: T1, NRP-1 (neuropilin-1), binding of bt-VEGF165; settings: cited from earlier work
[3] = set-up: method as in PMID 30241012; settings: human plasma; cited from earlier work
[4] = Proteolytic stability by incubation in human plasma at 37 °C (HPLC-MS); assay type: in vitro ADME; settings: for remaining at 8 h, 1.1 µmol/mL / remaining at 16 h, 1.1 µmol/mL / remaining at 24 h, 1.1 µmol/mL / remaining at 32 h, 1.1 µmol/mL / remaining at 40 h, 1.1 µmol/mL / remaining at 48 h, 1.1 µmol/mL: human; for remaining at 8 h, 1.1 µmol/mL / remaining at 16 h, 1.1 µmol/mL / remaining at 24 h, 1.1 µmol/mL / remaining at 32 h, 1.1 µmol/mL / remaining at 40 h, 1.1 µmol/mL / remaining at 48 h, 1.1 µmol/mL / half-life: pooled human plasma
Method: The samples of the incubated solutions were taken at constant time intervals (every 8 h) and analyzed with the use of HPLC-MS. This technique allows for determination of the proteolysis rate, and enables finding the cleavage sites by structural determination of appearing metabolites. To this aim, we used a previously established protocol.
The human plasma was provided by Mossakowski Medical Research Centre Polish Academy of Sciences (venous blood was obtained from three healthy donors and plasma samples were pooled in equal volumes). Triazolopeptide stock solution was prepared to achieve concentration ca. 1.4 mg/mL. Then, this solution was diluted two-fold into human plasma, affording a final concentration of ca. 1.1 µmol/mL. The samples were mixed on vortex mixer and incubated at 37 °C with 700 rpm mixing in thermoblock. Samples of 100 µL were taken every 8 h; the enzymatic cleavage was quenched by addition of 200 µL of 15% aqueos trichloroacetic acid and vortexed for a while. Precipitated proteins were then centrifuged at 14,000 rpm and 4 °C for 10 min to pellet them. After that, 150 µL of supernatant was taken and analyzed on HPLC-MS (quadrupole mass analyzer and electrospray ionization source). The system was equipped with Jupiter Proteo column I.D. 2.0 mm × 250 mm, phase A: ultrapure water + 0.05% TFA, phase B: gradient grade acetonitrile + 0.05% TFA, detection at 210 nm, quadrupole fixed on scan mode. Elution was with linear increase from 0% to 15% of phase B in 30 min, flow = 0.2 mL/min. All samples were analyzed trice in independent experiments.

[5] = test system: drug-resistant MDA-MB-231 human breast cancer cells xenograft; set-up: method as in PMID 16959272; settings: nude mice xenografted with drug-resistant MDA-MB-231 human breast cancer cells; cited from earlier work
[6] = test system: myeloblast-like cell line derived from bone marrow (32D); assay: In vitro cell survival test (Muse Count & Viability Kit); settings: 32D cells
Method: (§1) For this reason, we carried out a preliminary cytotoxicity assay on murine progenitor cells (myeloblast-like cell line derived from long term cultures of bone marrow 32D) to investigate the impact of 4 at different concentrations on their viability.
(§2) For the cell survivability test, the myeloblast-like cell line derived from long term cultures of bone marrow (32D, ATCC #CRL-11346) was used. Experiments were carried out using Muse Count & Viability Kit and Muse Cell Analyzer (Merck Millipore) according to the procedure given. Cells were incubated for 24 or 48 h with given 4 concentration. Each experiment was performed in three technical replications in three independent experiments.

[7] = in vitro; settings: mouse, cell viability (Muse Cell Analyser), single replicates
Method: as §1, §2

[8] = read-out: Relative (peak area average vs 0 h)

Har-Lys-GlyΨ[Trl]GlyΨ[Trl]Arg [Compound 16]
Inhibition of bt-VEGF165 Binding to NRP-1 [10 µM] [1]: 36.5 ± 1.4%

Lys(Har)-Pro-Ala-Arg (KPAR)
IC50 [2]: 0.2 µM

Har-Gly-GlyΨ[Trl]GlyΨ[Trl]Arg [Compound 22]
Inhibition of bt-VEGF165 Binding to NRP-1 [10 µM] [1]: 35.7 ± 1.6%

Har-5Ava-GlyΨ[Trl]GlyΨ[Trl]Arg [Compound 20]
Inhibition of bt-VEGF165 Binding to NRP-1 [10 µM] [1]: 29.7 ± 1.8%

Lys(Har)-GlyΨ[Trl]Ala-Arg [Compound 10]
Inhibition of bt-VEGF165 Binding to NRP-1 [10 µM] [1]: 43.3% and 43.2 ± 1.5%

Lys(Har)-Pro-Dab-Arg
t1/2 [3]: 0.733 h

Har-GlyΨ[Trl]GlyΨ[Trl]Arg [Compound 23]
Inhibition of bt-VEGF165 Binding to NRP-1 [10 µM] [1]: 20.0 ± 2.1%

Lys(Har)-Phe-GlyΨ[Trl]Arg [Compound 8]
Inhibition of bt-VEGF165 Binding to NRP-1 [10 µM] [1]: 30.9 ± 2.1%

Lys(Har)-Dab-Pro-Arg
Inhibition of bt-VEGF165 Binding to NRP-1 [10 µM] [2]: 98.5%
IC50 [2]: 0.2 µM
t1/2 [3]: 34 h

Lys(Har)-Dap-Pro-Arg
Inhibition of bt-VEGF165 Binding to NRP-1 [10 µM] [2]: 96.8%
IC50 [2]: 0.2 µM
t1/2 [3]: 41 h

Lys(Har)-Pro-GlyΨ[Trl]Arg [Compound 6]
Inhibition of bt-VEGF165 Binding to NRP-1 [10 µM] [1]: 18.3 ± 0.9%

D-Lys(Fmoc-Har)-GlyΨ[Trl]GlyΨ[Trl]Arg [Compound 15]
Inhibition of bt-VEGF165 Binding to NRP-1 [10 µM] [1]: 43.7 ± 0.5%

Har-GlyΨ[Trl]GlyΨ[Trl]GlyΨ[Trl]Arg [Compound 13]
Inhibition of bt-VEGF165 Binding to NRP-1 [10 µM] [1]: 34.8 ± 1.5%

Dap(Har)-GlyΨ[Trl]GlyΨ[Trl]Arg [Compound 18]
Inhibition of bt-VEGF165 Binding to NRP-1 [10 µM] [1]: 25.3 ± 3.5%

Har-Ala-GlyΨ[Trl]GlyΨ[Trl]Arg [Compound 21]
Inhibition of bt-VEGF165 Binding to NRP-1 [10 µM] [1]: 27.8 ± 2.1%

Lys(Fmoc-Har)-GlyΨ[Trl]GlyΨ[Trl]Arg [Compound 14]
Inhibition of bt-VEGF165 Binding to NRP-1 [10 µM] [1]: 57.7 ± 1.8%

Har-6Ahx-GlyΨ[Trl]GlyΨ[Trl]Arg [Compound 19]
Inhibition of bt-VEGF165 Binding to NRP-1 [10 µM] [1]: 30.5 ± 0.6%

Lys(Har)-Pro-Dab-Arg (K(hArg)P[Dab]R)
IC50 [2]: 0.3 µM

D-Lys(Har)-GlyΨ[Trl]Arg [Compound 2]
Inhibition of bt-VEGF165 Binding to NRP-1 [10 µM] [1]: 33.1 ± 1.9%

Lys-Pro-Pro-Arg (KPPR; printed: Lys-Pro-Pro-Arg)
Inhibition of bt-VEGF165 Binding to NRP-1 [10 µM] [2]: 64.5%
IC50 [2]: 4.6 µM

N=C(N)NCCCC[C@H](N)C(=O)NCCCC[C@H](N)C(=O)NCc1cn(Cc2cn([C@@H](CCCNC(=N)N)C(=O)O)nn2)nn1 [Compound 3, Lys(Har)-GlyΨ[Trl]GlyΨ[Trl]Arg]
compound remained in the solution after 48 h of incubation [4]: more than 70%
remaining at 8 h, 1.1 µmol/mL [4, 8]: 91.3%
remaining at 16 h, 1.1 µmol/mL [4, 8]: 90%
remaining at 24 h, 1.1 µmol/mL [4, 8]: 87.6%
remaining at 32 h, 1.1 µmol/mL [4, 8]: 81.8%
remaining at 40 h, 1.1 µmol/mL [4, 8]: 73.4%
remaining at 48 h, 1.1 µmol/mL [4, 8]: 72.2%
remaining at 48 h, 1.1 µmol/mL ([4]; read-out: compound remained in the solution after 48 h of incubation): ~70%
half-life [4]: > 48 h
IC50 [1]: 8.39 µM
inhibition at 10 µM [1]: 58.1 ± 2.1%

D-Lys(Har)-Pro-GlyΨ[Trl]Arg [Compound 7]
Inhibition of bt-VEGF165 Binding to NRP-1 [10 µM] [1]: 38.4 ± 1.5%

ATWKPPR [A7R]
Inhibition of bt-VEGF165 Binding to NRP-1 [10 µM] [2]: 61.0 ± 0.4 ^3%
IC50 [2]: 5.86 µM
activity in vivo [5]: active in vivo

N=C(N)NCCCC[C@@H](N)C(=O)NCCCC[C@@H](N)C(=O)NCc1cn(Cc2cn([C@@H](CCCNC(=N)N)C(=O)O)nn2)nn1 [Compound 5, D-Lys(D-Har)-GlyΨ[Trl]GlyΨ[Trl]Arg]
inhibition at 10 µM [1]: 48.5 ± 2.9%
IC50 ([1]; dose-response curve, supplement): 9.11 µM

Lys(Har)-GlyΨ[Trl]Gly-Arg [Compound 11]
Inhibition of bt-VEGF165 Binding to NRP-1 [10 µM] [1]: 30.6 ± 1.1%

Lys(Har)-Pro-Ala-Arg
t1/2 [3]: 0.65 h

Dab(Har)-GlyΨ[Trl]GlyΨ[Trl]Arg [Compound 17]
Inhibition of bt-VEGF165 Binding to NRP-1 [10 µM] [1]: 41.3 ± 0.5%

Lys(Har)-GlyΨ[Trl]Arg [Compound 1]
Inhibition of bt-VEGF165 Binding to NRP-1 [10 µM] [1]: 28.1 ± 1.2%

N=C(N)NCCCC[C@H](N)C(=O)NCCCC[C@@H](N)C(=O)NCc1cn(Cc2cn([C@@H](CCCNC(=N)N)C(=O)O)nn2)nn1 [Compound 4, D-Lys(Har)-GlyΨ[Trl]GlyΨ[Trl]Arg]
impact on cell survivability ([6]; 100 µM, 48 h incubation): does not exhibit any significant impact on normal cells’ viability; also recorded: does not exhibit any significant impact on cell survivability
cell survival, t-test ([6]; different concentrations): No significant differences in cell survival
compound remained in the solution after 48 h of incubation [4]: almost undigested; also recorded: almost non-degraded
remaining at 8 h, 1.1 µmol/mL [4, 8]: 99.4%
remaining at 16 h, 1.1 µmol/mL [4, 8]: 95.7%
remaining at 24 h, 1.1 µmol/mL [4, 8]: 93.3%
remaining at 32 h, 1.1 µmol/mL [4, 8]: 93.1%
remaining at 40 h, 1.1 µmol/mL [4, 8]: 93%
remaining at 48 h, 1.1 µmol/mL [4, 8]: 91.8%
half-life [4]: > 48 h
viability at 24 h, 0.1 µM [7]: 99.4%
viability at 24 h, 1 µM [7]: 99.3%
viability at 24 h, 10 µM [7]: 99%
viability at 24 h, 50 µM [7]: 98.7%
viability at 24 h, 100 µM [7]: 98.6%
viability at 48 h, 0.1 µM [7]: 99.4%
viability at 48 h, 1 µM [7]: 99.6%
viability at 48 h, 10 µM [7]: 99.4%
viability at 48 h, 50 µM [7]: 99.7%
viability at 48 h, 100 µM [7]: 99.2%
IC50 [1]: 10.2 µM
inhibition at 10 µM [1]: 52.6 ± 1.3%

D-Lys(Har)-Phe-GlyΨ[Trl]Arg [Compound 9]
Inhibition of bt-VEGF165 Binding to NRP-1 [10 µM] [1]: 37.9 ± 1.1%

Har-Pro-GlyΨ[Trl]Arg [Compound 12]
Inhibition of bt-VEGF165 Binding to NRP-1 [10 µM] [1]: 9.2 ± 0.8%
